Data taken from article PMC8230565, “Bisavenathramide Analogues as Nrf2 Inductors and Neuroprotectors in In Vitro Models of Oxidative Stress and Hyperphosphorylation” (Antioxidants, 2021).

Tested on: Nrf2
Assay: Nrf2 nuclear translocation, immunocytochemistry in AREc32 cells
Format: cell-based
Conditions: 30 μM, 1 h
Experimental: AREc32 or SH-SY5Y cells were seeded in 24 multiwell plates (40,000 or 100,000 cells per well, respectively) on poly-D-Lysine coated crystal slides. AREc32 cells were incubated for 1 h with the compounds under assay, and were then fixed by treatment with a 4% solution of paraformaldehyde in PBS for 15 min, followed by three washings with PBS in 5 min intervals. SH-SY5Y cells were treated with compounds during 24 h, and then co-incubated with medium (basal), okadaic acid (OA, 20 nM), or OA plus compound 3i (10 μM). […]
Figure 4 Compound 3g effectively induces Nrf2 translocation and overexpression of Nrf2-ARE dependent genes in AREc32 cells. […] (B) Nrf2 nuclear localization analysis, measured as integrated intensity localized at the nucleus. HMOX1 (C) and NQO1 (D) expression in AREc32, measured by Western blot analysis. Cells were treated with compound 3g (30 µM), sulforaphane (10 µM), or culture medium (basal) for 24 h and protein expression was then assessed. Graphs are expressed as densitometric quantification using β-actin for normalization (bottom). […] Data are expressed as mean ± S.E.M. of six independent experiments. […]

## COC(=O)C1=C(C)N(CCc2ccccc2)C(=O)/C1=C\c1cc(OC)c(OC)c(OC)c1 [Compound 3g, Methyl (Z)-2-Methyl-5-oxo-1-phenethyl-4-(3,4,5-trimethoxybenzylidene)-4,5-dihydro-1H-pyrrole-3-carboxylate]
  Nrf2 distribution in cells: predominately nuclear distribution of Nrf2
